Results on five substances are retold here after ChEMBL document CHEMBL1152680, “Peptide inhibitors of HIV-1 integrase: from mechanistic studies to improved lead compounds” (Bioorg Med Chem, 2009).

Calls of active or inactive are those of the source. The rule behind the calls is not given here.

Data set [1] has as its target Human immunodeficiency virus type 1 integrase (Human immunodeficiency virus 1) (UniProt Q7ZJM1). Put plainly: Inhibition of integration activity of histidine-tagged HIV1 full length integrase at enzyme to peptide molar ratio of 1:50. The following applies: concentration not given here.
For data set [2], the system named is Human immunodeficiency virus 1. Put plainly: Antiviral activity against HIV1 infected in human TZM-bl cells assessed as inhibition of viral replication treated 2 hrs before viral infection. In kind it is functional, organism-based.
The nature of data set [3]: Cellular uptake in cytoplasm of human HeLa cells at 10 uM after 2 hrs by confocal microscopy. In kind it is ADME, cell-based.
Data set [4] has as its target Human immunodeficiency virus type 1 integrase (Human immunodeficiency virus 1) (UniProt Q7ZJM1). Put plainly: Inhibition of viral DNA binding to dimeric histidine-tagged HIV1 full length integrase treated for 20 mins before addition of fluorescein-labeled viral LTR DNA by fluorescence anisotropy.
For data set [5] the target is unchanged. Put plainly: Inhibition of histidine-tagged HIV1 full length integrase assessed as inhibition of viral DNA integration into human SupT1 cellular genome at 62.5 uM treated 2 hrs before viral infection measured after 24 hrs by real time PCR analysis. It is filed as cell-based.
In data set [6] the test system is Human immunodeficiency virus 1. Put plainly: Antiviral activity against HIV1 infected in human TZM-bl cells assessed as inhibition of viral replication at 62.5 uM treated 2 hrs before viral infection measured after 2 days by MAGI assay. In kind it is functional. As to conditions: Human immunodeficiency virus 1, TZM-bl.
Data set [7] has as its target Human immunodeficiency virus type 1 integrase (Human immunodeficiency virus 1) (UniProt Q7ZJM1). Put plainly: Binding affinity to dimeric histidine-tagged HIV1 full length integrase by analytical gel filtration.
Data set [8] has as its system Human immunodeficiency virus 1. Description: Antiviral activity against HIV1 infected in human SupT1 cells assessed as change in total amount of viral DNA at 0.5 to 62.5 uM treated 2 hrs before viral infection measured after 24 hrs by real time PCR analysis. The following applies: SUP-T1. It is filed as functional, organism-based.
The target of data set [9] is Human immunodeficiency virus type 1 integrase (Human immunodeficiency virus 1) (UniProt Q7ZJM1). Description: Binding affinity to HIV1 integrase catalytic core domain (118-132) by ELISA.
Data set [10] deals with T1, Human immunodeficiency virus type 1 integrase (Human immunodeficiency virus 1, UniProt Q7ZJM1). Put plainly: Binding affinity to histidine-tagged HIV1 full length integrase by fluorescence anisotropy.
The nature of data set [11]: Cellular uptake in nucleus of human HeLa cells at 10 uM after 2 hrs by confocal microscopy. In kind it is ADME, cell-based.
In data set [12] the target is Human immunodeficiency virus type 1 integrase (Human immunodeficiency virus 1) (UniProt Q7ZJM1). Description: Ratio of compound to IN1 activity for inhibition of viral DNA binding to histidine-tagged HIV1 full length integrase.
For data set [13] the target is unchanged. Description: Binding affinity to HIV1 integrase DNA binding domain (240-260) by ELISA.
Data set [14] shares this target. Put plainly: Binding affinity to HIV1 integrase catalytic core domain (94-112) by ELISA.
For data set [15] the target is unchanged. Description: Inhibition of integration activity of histidine-tagged HIV1 full length integrase at 76 uM.
Data set [16] in a line: Solubility of the compound. It is filed as physicochemical.
The target in data set [17] is Human immunodeficiency virus type 1 integrase (Human immunodeficiency virus 1) (UniProt Q7ZJM1). Put plainly: Binding affinity to HIV1 integrase catalytic core domain (70-84) by ELISA.
Data set [18] concerns the target T1, Human immunodeficiency virus type 1 integrase. Description: Binding affinity to tetrameric histidine-tagged HIV1 full length integrase by fluorescence anisotropy.
For data set [19], the target named is Human immunodeficiency virus type 1 integrase (Human immunodeficiency virus 1) (UniProt Q7ZJM1). Put plainly: Binding affinity to tetrameric histidine-tagged HIV1 full length integrase by analytical gel filtration.
Data set [20] shares this target. Description: Inhibition of viral DNA binding to tetrameric histidine-tagged HIV1 full length integrase treated for 20 mins before addition of fluorescein-labeled viral LTR DNA by fluorescence anisotropy.

Chain of Human immunodeficiency virus type 1 integrase (Human immunodeficiency virus 1) (Q7ZJM1 as listed by the source): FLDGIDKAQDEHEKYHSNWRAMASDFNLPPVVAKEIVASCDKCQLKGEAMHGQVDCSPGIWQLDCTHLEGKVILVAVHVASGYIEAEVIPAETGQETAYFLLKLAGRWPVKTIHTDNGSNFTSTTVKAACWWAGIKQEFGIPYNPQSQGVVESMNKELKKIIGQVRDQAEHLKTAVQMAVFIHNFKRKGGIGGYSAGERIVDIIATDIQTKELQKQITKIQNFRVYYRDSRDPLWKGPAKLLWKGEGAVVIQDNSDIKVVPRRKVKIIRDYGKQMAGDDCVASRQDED
T1 sequence (Q7ZJM1 whole entry): as the sequence (Q7ZJM1 as listed by the source) above

On to H-WFVLLTITVLR-OH [WFVLLTITVLR], for which the inhibition in [1] is 24%; in data set [2], “Dose-dependent effect”; in data set [5], 23%. In addition, the Drug uptake entry in data set [3] and in [11] was “Active” throughout. Also, in data set [4], the inhibition result was “Active”. Also, the inhibition at 62.5 µM in data set [6] stood at 29%. Further, the result in data set [7], in data set [9] and in data set [13] was Active. The result in data set [8] was inactive. The equilibrium dissociation constant (Kd) in data set [10] (read-out: Kd) was found to be 1.8 µM. In addition, the Ratio in data set [12] worked out at 2.

Turning to H-WITVLR-OH, the inhibition entry in data set [2] is “Dose-dependent effect”. Moreover, the inhibition result in [4] is “Active”. Besides, in [10], the Kd result is on record as “Not Active”.

For H-WQCLTLTHRG-OH, the inhibition entry in [2] is “Dose-dependent effect”; in data set [5], 64%; in [15], 73%. Also, the Drug uptake entry in [3] and in [11] was “Active” throughout. Also, the inhibition entry in [4] is “Active”. In [6], the inhibition at 62.5 µM came to 68%. Further, the result in data set [7], in data set [9] and in data set [14] was Active. The outcome in [8] was inactive. Besides, the dissociation constant Kd in data set [10] (read-out: Kd) stood at 1.7 µM. The Ratio in data set [12] is 2.

As for H-WQCLTLTHRGFVLLTITVLR-OH, the figures for the inhibition entry in data set [2], in data set [5] and in data set [15] were “Dose-dependent effect”, 63% and 77%, respectively. The solubility result in data set [16] is “Soluble”. In addition, the result in [17], in data set [9], in [14], in [19] and in data set [13] was Active. In addition, the inhibition at 62.5 µM in data set [6] was 70%. Besides, the outcome in data set [8] was inactive. Besides, binding in data set [18] was put at a Kd of 8.7 µM. The inhibition result in data set [20] was “Active”.

Turning to H-WQSLTLTHRG-OH, the inhibition in data set [1] is 62%; in [2], “Dose-dependent effect”; in data set [5] it was 51%. The Drug uptake entry in data set [3] and in data set [11] was “Active” each time. The inhibition result in data set [4] is “Active”. Further, in data set [6], the inhibition at 62.5 µM turned out to be 60%. Moreover, the outcome in data set [8] was inactive. Moreover, the equilibrium dissociation constant (Kd) in data set [10] (read-out: Kd) amounted to 1.2 µM.
